Laboratory results: US9492468B2, “Methods and compositions for treatment of acute heart failure” (PERICOR THERAPEUTICS, INC., priority 2008, dated 2016)
Where a name gives a salt, the structure may show the parent alone.

Tests used:
Format in all cases: in vivo, dog
TnI = experiment: Plasma troponin I (sandwich ELISA), dose escalation study
Protocol: (§1) Eight heart failure dogs described in Example 1 were used. Seven of 8 dogs underwent two studies, one with active drug GP-531 tartrate and one with vehicle (placebo) and 1 of 8 dogs underwent only one active drug GP-531 study. The order of active drug and placebo was randomized and performed about one week apart. In 6 of 8 dogs, after baseline hemodynamic, and ventriculographic measurements, vehicle was administered as a continuous intravenous infusion for one hour. At the end of one hour, the active drug GP-531 tartrate was administered in 3 escalating dose of continuous intravenous infusion with each dose maintained for one hour. At the end of the last drug dose, infusion was stopped and a washout period of one hour was instituted. The same infusion rates and times between doses were used when vehicle studies were performed. At the end of each hour, hemodynamic and angiographic measurements were made. Venous blood samples were obtained at baseline and at one hour after each dose. Blood samples (at least 10 mL) were centrifuged at 3000 rpm for 10 minutes and plasma withdrawn and placed in cryostorage tubes and stored upright at −20° C. for future use. In 2 of 8 dogs, active drug was administered as bolus followed by a constant infusion for 3 hours as noted below.
(§2) Plasma biomarkers were measured in Groups I and II. Troponin I (TnI) was determined in plasma based on the principle of the double antibody sandwich enzyme-linked immunosorbent assay (ELISA) (Hirano, T., et al., Immunol Today 1990, 11:443-449) and n-terminal brain natriuretic peptide (NT-pro-BNP) based on competitive ELISA (Bonow, R. O. Circulation 1996, 93:1946-1950). Both biomarkers were assayed using commercially available assay kits. Kits for NT proBNP and TnI were purchased from ALPCO Diagnostics, Salem, N.H. Using standard curves and software, the concentration of each biomarker was expressed as ng/ml for TnI and fmol/ml for NT-proBNP.

NT-ProBNP = experiment: Plasma NT-proBNP (competitive ELISA), dose escalation study
Protocol: as §1, §2

[1] = test system: dogs with advanced heart failure; experiment: GP-531 infusion simultaneously with 8-SPT (non-selective adenosine antagonist); conditions: for Cardiac output (CO) / Heart rate (HR) / LV end-diastolic pressure (LVEDP) / LV end-diastolic volume (EDV) / LV end-systolic volume (ESV) / Mean aortic pressure (mAoP) / Stroke volume (SV) / Systemic vascular resistance (SVR): GP-531 infusion simultaneously with 8-SPT infusion
Protocol: At the completion of the 6 hour constant infusion study, a secondary study was performed in 3 heart failure dogs to assess the effects of GP-531 in the presence of the non-selective adenosine antagonist 8-p-sulfophenyl theophylline (8-SPT). After baseline hemodynamic and ventriculographic measurements, 8-SPT was administered as 10 mg/kg intravenous bolus followed by 10 mg/kg/hr constant infusion for 3 hours. Infusion of GP-531 tartrate was initiated simultaneously with infusion of 8-SPT at a dose of 10 μg/kg/hr and also maintained for 3 hours. Hemodynamic and ventriculographic measurements were made at 1, 2 and 3 hours.
All hemodynamic measurements were made during left and right heart catheterizations in anesthetized dogs at each specified study time point. Heart rate (HR), mean aortic pressure (mAoP), LV end-diastolic pressure (LVEDP), stroke volume (SV), cardiac output (CO) and systemic vascular resistance (SVR) were measured at each study time point. Left ventriculograms were performed during cardiac catheterization after completion of the hemodynamic measurements. Left ventriculograms were obtained with the dog placed on its right side and digitally recorded during the injection of 20 ml of contrast material (RENO-M-60 Squibb, Princeton, N.J.). Correction for image magnification was made using a radiopaque grid placed at the level of the LV. LV end-systolic (ESV) and end-diastolic volumes (EDV) were calculated from angiographic silhouettes using the area length method (Dodge H T, et al, Am J Cardiol. 1966; 18:10-24.). Premature beats and post-extra-systolic beats were excluded from the analysis. LV ejection fraction (EF) was calculated as the ratio of the difference of end-diastolic and end-systolic volumes to end-diastolic volume times 100, as described above.
Within group hemodynamic and angiographic data were analyzed using repeated measures analysis of variance (ANOVA) with alpha set at 0.05. If the overall ANOVA was significant, then pairwise comparisons between baseline and drug or placebo dose/time point were performed using the Student-Newman-Keuls test. For this test, a p-value of <0.05 was considered significant. All data are reported as the mean±SEM.

[2] = Group I HF dogs n=3, 1 h washout after 30/100/300 μg/kg/min
[3] = Group I HF dogs n=3, iv 30 μg/kg/min, 1 h
[4] = Group I HF dogs n=3, iv 100 μg/kg/min, 1 h
[5] = Group I HF dogs n=3, iv 300 μg/kg/min, 1 h
[6] = Group II HF dogs n=3, 1 h washout after 3/10/30 μg/kg/min
[7] = Group II HF dogs n=3, iv 3 μg/kg/min, 1 h
[8] = Group II HF dogs n=3, iv 10 μg/kg/min, 1 h
[9] = Group II HF dogs n=3, iv 30 μg/kg/min, 1 h
[10] = Group I HF dogs, all doses (30, 100, 300 μg/kg/min), vs baseline
[11] = HF dogs n=3, administered simultaneously with 8-SPT, 3 h

SMILES: NC(=O)c1ncn(C2OC(CNCc3ccccc3)C(O)C2O)c1N [GP-531, 5-amino-1-β-D-(5-benzylamino-5-deoxy-1-β-D-ribofuranosyl)imidazole-4 carboxamide]
- Plasma TnI (TnI; [2]): 0.36 ± 0.03 pg/mL
- Plasma TnI (TnI; [3]): 0.17 ± 0.03 pg/mL
- Plasma TnI (TnI; [4]): 0.13 ± 0.02 pg/mL
- Plasma TnI (TnI; [5]): 0.15 ± 0.05 pg/mL
- Plasma TnI (TnI; [6]): 0.31 ± 0.05 pg/mL
- Plasma TnI (TnI; [7]): 0.51 ± 0.05 pg/mL
- Plasma TnI (TnI; [8]): 0.50 ± 0.15 pg/mL
- Plasma TnI (TnI; [9]): 0.19 ± 0.05 pg/mL
- Plasma NT-ProBNP (NT-ProBNP; [2]): 204 ± 5 fmol/mL
- Plasma NT-ProBNP (NT-ProBNP; [3]): 128 ± 23 fmol/mL
- Plasma NT-ProBNP (NT-ProBNP; [4]): 131 ± 8 fmol/mL
- Plasma NT-ProBNP (NT-ProBNP; [5]): 121 ± 13 fmol/mL
- Plasma NT-ProBNP (NT-ProBNP; [6]): 179 ± 6 fmol/mL
- Plasma NT-ProBNP (NT-ProBNP; [7]): 225 ± 34 fmol/mL
- Plasma NT-ProBNP (NT-ProBNP; [8]): 155 ± 1 fmol/mL
- Plasma NT-ProBNP (NT-ProBNP; [9]): 123 ± 21 fmol/mL
- Cardiac output (CO) ([1]; HF dogs n=3, 1 h): 1.51 ± 0.08 L/min
- Heart rate (HR) ([1]; HF dogs n=3, 1 h): 80 ± 4 beats/min
- LV end-diastolic pressure (LVEDP) ([1]; HF dogs n=3, 1 h): 16 ± 0.0 mmHg
- LV end-diastolic volume (EDV) ([1]; HF dogs n=3, 1 h): 69 ± 3 mL
- LV end-systolic volume (ESV) ([1]; HF dogs n=3, 1 h): 50 ± 3 mL
- Mean aortic pressure (mAoP) ([1]; HF dogs n=3, 1 h): 97 ± 9 mmHg
- Stroke volume (SV) ([1]; HF dogs n=3, 1 h): 19 ± 0.6 rnl
- Systemic vascular resistance (SVR) ([1]; HF dogs n=3, 1 h): 5089 ± 203 dynes-sec-cm^−5
- Cardiac output (CO) ([1]; HF dogs n=3, 2 h): 1.57 ± 0.15 L/min
- Heart rate (HR) ([1]; HF dogs n=3, 2 h): 81 ± 5 beats/min
- LV end-diastolic pressure (LVEDP) ([1]; HF dogs n=3, 2 h): 16 ± 0.3 mmHg
- LV end-diastolic volume (EDV) ([1]; HF dogs n=3, 2 h): 69 ± 3 mL
- LV end-systolic volume (ESV) ([1]; HF dogs n=3, 2 h): 49 ± 2 mL
- Mean aortic pressure (mAoP) ([1]; HF dogs n=3, 2 h): 82 ± 6 mmHg
- Stroke volume (SV) ([1]; HF dogs n=3, 2 h): 19 ± 0.9 rnl
- Systemic vascular resistance (SVR) ([1]; HF dogs n=3, 2 h): 4191 ± 84 dynes-sec-cm^−5
- Cardiac output (CO) ([1]; HF dogs n=3, 3 h): 1.53 ± 0.05 L/min
- Heart rate (HR) ([1]; HF dogs n=3, 3 h): 81 ± 6 beats/min
- LV end-diastolic pressure (LVEDP) ([1]; HF dogs n=3, 3 h): 16 ± 0.3 mmHg
- LV end-diastolic volume (EDV) ([1]; HF dogs n=3, 3 h): 68 ± 3 mL
- LV end-systolic volume (ESV) ([1]; HF dogs n=3, 3 h): 49 ± 3 mL
- Mean aortic pressure (mAoP) ([1]; HF dogs n=3, 3 h): 82 ± 7 mmHg
- Stroke volume (SV) ([1]; HF dogs n=3, 3 h): 19 ± 1.0 rnl
- Systemic vascular resistance (SVR) ([1]; HF dogs n=3, 3 h): 4297 ± 253 dynes-sec-cm^−5
- Benefits on LV function in conjunction with 8-SPT ([1]; HF dogs, administered in conjunction with 8-SPT, non-selective adenosine receptor antagonist): abolished

SMILES: NC(=O)c1ncn(C2OC(CNCc3ccccc3)C(O)C2O)c1N (stereo not drawn) [GP-531 tartrate]
- Effect on plasma TnI (TnI; [10]): decreased significantly
- Effect on plasma TnI (TnI; Group II HF dogs, 30 μg/kg/min, not statistically significant): tended to decrease at the highest dose
- Effect on plasma NT-Pro-BNP (NT-ProBNP; [10]): decreased significantly
- Effect on plasma NT-proBNP (NT-ProBNP; Group II HF dogs, 3, 10, 30 μg/kg/min, significance only at 30 μg/kg/min): tended to decrease with escalating doses
- Effect on CO [1, 11]: no effects
- Effect on EDV [1, 11]: no effects
- Effect on EF [1, 11]: no effects
- Effect on ESV [1, 11]: no effects
- Effect on HR [1, 11]: no effects
- Effect on LVEDP [1, 11]: no effects
- Effect on SV [1, 11]: no effects
- Effect on SVR [1, 11]: no effects
- Effect on mAoP [1, 11]: no effects
